Results as given in patent publication US20200360331A1, “COMPOSITIONS COMPRISING 15-HEPE AND/OR 15-HETrE AND METHODS OF TREATING OR PREVENTING CARDIOMETABOLIC DISEASE, METABOLIC SYNDROME, AND/OR RELATED DISEASES” (Afimmune Limited, priority 2019, published 2020).
Entries after “also recorded” stand apart in the source; their conditions may differ.

How the values were obtained:
[1] = system: NAFLD patients; test: Phase IIa NAFLD study: safety (adverse events); format: in vivo, human
Source text: The study was planned to include 96 evaluable patients with 32 patients randomized per treatment group.
The intensity of an AE is an estimate of the relative severity of the event made by the Investigator based on his or her clinical experience. The following definitions were used to rate the severity of an AE: • Mild: The adverse event was transient and easily tolerated. • Moderate: The adverse event caused the patient discomfort and interrupted the patient's usual activities. • Severe: The adverse event caused considerable interference with the patient's usual activities and may have been incapacitating or life-threatening.
Causality of the AE to experimental treatment was also established by taking into account the patient's history, most recent physical examination findings, and concomitant medications. The following definitions were used to determine causality of an AE: • Not related: temporal relationship of the onset of the AE, relative to the experimental treatment was not reasonable or another cause could explain the occurrence of the AE. • Related: temporal relationship of the onset of the AE, relative to the experimental treatment was reasonable, followed a known response pattern to the treatment, and an alternative cause was unlikely.

[2] = system: EGFR (epidermal growth factor receptor); test: Sucrose density gradient analysis in Mv1Lu cells, EGFR; format: cell-based, mink; conditions: 100 μM, 0, 1, 4 and 24 hours
Method: Sucrose gradient ultracentrifugation and confocal microscopy were used to identify 15-HEPE induced microdomain translocation of TGF-β receptors by sucrose. Sucrose density gradient analysis of TGF-β receptors was conducted in the plasma membranes of Mv1Lu cells (mink lung epithelial cell) treated with 100 μM of 15-HEPE and an equal volume of DMSO (dimethyl sulfoxide) at 37° C. for 0, 1, 4, and 24 hours, and the cell lysates from these treated cells were subjected to sucrose density gradient ultracentrifugation. The sucrose gradient fractions were then analyzed by Western blot analysis using anti-TβR-I (type I TGF-β receptor), anti-TβR-II (type II TGF-β receptor), anti-TβR-III (type III TGF-β receptor, betaglycan), anti-EGFR (epidermal growth factor receptor), and anti-caveolin-1 antibodies. The lipid raft/caveolae, and non-lipid raft microdomain localization of TβR-I, TβR-II, TβR-III, EGFR and caveolin-1 in the plasma membrane of untreated cells or cells treated with 15-HEPE were assessed to determine the effects of 15-HEPE on the membrane microdomain localization of the TGF-β receptors. […]

[3] = system: NAFLD patients; test: Phase IIa NAFLD study: lipidomics; format: in vivo, human; conditions: 2 g
Source text: Exploratory analysis: The exploratory analysis included analysis of lipid and metabolic parameters including total cholesterol, triglycerides, very low-density lipoprotein cholesterol (VLDL-C), low density lipoprotein cholesterol (LDL-C), high density lipoprotein cholesterol (HDL-C), non-high-density lipoprotein cholesterol (non-HDL-C), remnant-like particle cholesterol (RLP-C), fasting glucose, insulin, free fatty acids and hemoglobin A1C (HbA1C). Additional exploratory analysis included high throughput lipidomics and proteomics. […] The study was planned to include 96 evaluable patients with 32 patients randomized per treatment group. […] Exploratory analysis: The exploratory analysis included analysis of lipid and metabolic parameters including total cholesterol, triglycerides, very low-density lipoprotein cholesterol (VLDL-C), low density lipoprotein cholesterol (LDL-C), high density lipoprotein cholesterol (HDL-C), non-high-density lipoprotein cholesterol (non-HDL-C), remnant-like particle cholesterol (RLP-C), fasting glucose, insulin, free fatty acids and hemoglobin A1C (HbA1C). Additional exploratory analysis included high throughput lipidomics and proteomics.

[4] = target: T1, type II TGF-β receptor (Homo sapiens, UniProt P37173); test: Degradation of type II TGF-β receptor in HepG2 cells; format: cell-based; conditions: increasing doses for 1 hour, then 200 pM TGF-β for 48 hours
T1 construct: endogenous in cells; host or cells: HepG2
Method: The effects of 15-HEPE on TGF-β-induced signaling and cellular responses were determined. To test the effect of 15-HEPE on TGF-β-induced signaling, the activities of 15-HEPE to regulate TGF-β-stimulated Smad2 phosphorylation and nuclear translocation, both of which are key signaling events leading to TGF-β-induced cellular responses, were tested. One important biological activity of TGF-β is transcriptional activation of genes responsible for epithelial-mesenchymal transition (EMT), which is a crucial event in wound healing, tissue fibrosis, and cancer progression. The effect of 15-HEPE on TGFβ-induced epithelial mesenchymal transition related proteins (such as fibronectin, PAI-1, and N-cadherin etc.) expression in HepG2 and […] cells were assessed. HepG2 cells (human hepatoma cell line) were treated in increasing doses of 15-HEPE stage II in DMEM containing 0.1% of FBS for 1 hour and continually stimulated with or without 200 picomolar (pM) of TGF-β for 48 hours.
HepG2 cells (human hepatoma cell line) were treated in increasing doses of 15-HEPE stage II in DMEM containing 0.1% of FBS for 1 hour and continually stimulated with or without 200 picomolar (pM) of TGF-β for 48 hours. The two panels shown in FIG. 18A are two separate experiments run under the same experimental conditions.

[5] = system: TGF-β-stimulated intracellular signaling (SMAD2/3 phosphorylation); test: TGF-β-stimulated SMAD2/3 phosphorylation in LX2 liver stellate cells; format: cell-based, human; conditions: 0 μM to 100 μM for 24 hours, then 30 min TGF-β stimulation, listed as 15-HEPE

T1 sequence (P37173 23-567): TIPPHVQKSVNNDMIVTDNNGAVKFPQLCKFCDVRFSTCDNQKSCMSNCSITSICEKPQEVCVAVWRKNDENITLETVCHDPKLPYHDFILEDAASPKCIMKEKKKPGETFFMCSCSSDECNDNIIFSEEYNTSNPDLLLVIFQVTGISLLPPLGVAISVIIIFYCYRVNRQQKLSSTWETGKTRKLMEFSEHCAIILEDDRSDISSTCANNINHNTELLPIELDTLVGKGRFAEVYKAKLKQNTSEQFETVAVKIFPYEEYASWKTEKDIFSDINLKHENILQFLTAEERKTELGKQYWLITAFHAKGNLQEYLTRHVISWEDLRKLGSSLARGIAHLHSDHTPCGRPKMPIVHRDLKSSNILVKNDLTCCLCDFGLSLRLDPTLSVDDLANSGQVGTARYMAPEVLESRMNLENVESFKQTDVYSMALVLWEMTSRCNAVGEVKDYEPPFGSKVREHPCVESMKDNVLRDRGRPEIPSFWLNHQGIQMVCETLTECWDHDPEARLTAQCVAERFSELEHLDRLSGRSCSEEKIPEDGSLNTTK

CC/C=C\CC(O)/C=C/C=C\C/C=C\C/C=C\CCCC(=O)O (centres unmarked) [DS102, 15-hydroxy-eicosa-5Z,8Z,11Z,13E,17Z-pentaenoic acid]
Death, patients n ([1]; 1 g DS102 (n = 32)): 0
Patients with ≥1 AE related to study drug, % ([1]; 1 g DS102 (n = 32)): (6.3) %
Patients with ≥1 AE, % ([1]; 1 g DS102 (n = 32)): (59.4) %
Death, patients n ([1]; 2 g DS102 (n = 30)): 0
Patients with ≥1 AE related to study drug, % ([1]; 2 g DS102 (n = 30)): (10.0) %
Patients with ≥1 AE, % ([1]; 2 g DS102 (n = 30)): (50.0) %
Patients with ≥1 SAE, % ([1]; 2 g DS102 (n = 30)): (3.3) %
drug related serious adverse events (SAEs) ([1]; NAFLD patients, 16 weeks): no drug related serious adverse events
safety and tolerability compared to placebo ([1]; NAFLD patients, 16 weeks): safe and well tolerated
localization and abundance of EGFR [2]: did not change the localization and abundance
levels of multiple glycerophospholipid groups [3]: significantly increased
levels of multiple hepatotoxic diglycerides [3]: significantly decreased
degradation of type II TGF-β receptor [4]: induced degradation of type II TGF-β receptor
TGF-β-stimulated intracellular signaling (SMAD2/3 phosphorylation) [5]: inhibits TGF-β-stimulated intracellular signaling; also recorded: inhibited TGF-β induced intracellular signaling (SMAD2/3)
